How the values were obtained:
[1] = in vitro; conditions: human
Protocol: (§1) Memory CD4^+ Tconv purified from healthy donor PBMC were used. Purified 10^5 CD4^+ Tconv were cultured in 96-round bottomed wells in complete RPMI medium for 48 h in presence of a strong TCR stimulation (expand beads, ratio bead:cell 1:8)+IL-2 (50UI/ml) in absence (medium condition) or in presence of graded doses of Taxol (0.01; 0.1; 1 μM). Viability was analyzed by multiparametric flow cytometry on different cell subsets according to their expression of CD73 and MDR1 (CD73 MDR1, CD73^+MDR1^neg, CD73^negMDR1^+, CD73^negMDR1^neg). Survival was analyzed by multiparametric flow cytometry using Annexin-V and DAPI stainings (both from Becton Dickinson) according to CD73 and MDR1 expression. % of viable cells (Annexin V^neg DAPI^neg) was compared according to the cell subset analyzed.
(§2) Their survival was analyzed by multiparametric flow cytometry using with Annexin-V and DAPI stainings (both from Becton Dickinson) according to CD73 and MDR1 expression. The percentage of viable cells (Annexin V^neg DAPI^neg) was compared according to the cell subset analyzed.

[2] = system: PBMC-purified memory CD4+ Tconv; experiment: in vitro; conditions: 48 h
Protocol: as §1, §2

[3] = system: CD73+ or CD73neg Tconv; experiment: Cytokine secretion of purified Tconv subsets after 2 days of anti-CD3/anti-CD28 bead activation; format: cell-based, human; conditions: 2 days of activation; addition of Ado
Protocol: Moreover, the impact of Ado and AMP on cytokine secretion capacity was analyzed on both purified Tconv subsets. To avoid a confounding effect of Ado and AMP on proliferation in this analysis we analyzed cytokine secretion after 2 days of activation with anti-CD3/anti-CD28 beads which was determined as the maximal length of activation without induction of any proliferation (CFSE dilution). First, we confirmed that CD73^+ Tconv produced more IL-2, TNF-α, IFN-γ, IL-17A, IL-22, GM-CSF and IL-3 but less IL-10, IL-13 and IL-21 than CD73^neg in this activation setting. As shown previously for the proliferation, the secretion of the cytokines produced by CD73^+ or CD73^neg Tconv was inhibited by the addition of Ado.

[4] = system: CD73+ or CD73neg Tconv; experiment: 4 days' proliferation of purified CD73+ or CD73neg Tconv with anti-CD3/anti-CD28 beads; format: cell-based, human
Protocol: Addition of recombinant ADA (rhADA, 1 μg/ml), inducing degradation of Ado into Ino restored both T cell subsets proliferation confirming the immunosuppressive impact of Ado.

[5] = target: T1, CD73 (Homo sapiens, UniProt P21589); experiment: Hydrolysis of C13N15 AMP into Ado by CD73+ Tconv (HPLC); format: cell-based
T1 construct: endogenous in cells
T1 sequence (P21589 27-549): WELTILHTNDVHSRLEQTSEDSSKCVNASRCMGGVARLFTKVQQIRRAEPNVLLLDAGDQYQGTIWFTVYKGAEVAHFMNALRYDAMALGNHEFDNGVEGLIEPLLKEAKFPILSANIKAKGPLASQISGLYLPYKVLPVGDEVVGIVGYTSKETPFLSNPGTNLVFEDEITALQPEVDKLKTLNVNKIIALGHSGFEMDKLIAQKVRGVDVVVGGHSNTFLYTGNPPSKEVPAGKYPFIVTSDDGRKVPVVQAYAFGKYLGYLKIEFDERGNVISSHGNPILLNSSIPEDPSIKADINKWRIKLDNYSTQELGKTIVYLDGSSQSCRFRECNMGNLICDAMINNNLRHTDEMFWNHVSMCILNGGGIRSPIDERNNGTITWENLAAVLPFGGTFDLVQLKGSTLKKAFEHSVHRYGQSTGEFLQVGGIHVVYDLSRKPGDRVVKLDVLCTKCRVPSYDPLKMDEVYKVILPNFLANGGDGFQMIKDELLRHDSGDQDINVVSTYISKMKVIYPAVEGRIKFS
Protocol: To confirm this hypothesis, we quantified, by HPLC, the capacity of Treg to degrade ATP into Ado. To prevent interference with endogenous ATP or metabolites, these experiments were performed with exogenous C13N15 stable isotope ATP. After two hours, Treg purified from HD blood degraded 48.24±6.20% of ATP into AMP without generating neither Ado nor Inosine. […] Moreover, we confirmed that CD73^+ and CD73^neg Tconv were not able to degrade C13N15 ATP.
Using this technique, we confirmed the enzymatic functionality of CD73 on Tconv. Only CD73^+ Tconv were capable of hydrolyzing C13N15 AMP into Ado and this was reversed by addition of a specific CD73 inhibitor (AMPCP).

[6] = system: CD73+ Tconv; experiment: Co-culture of Treg with CD73+ or CD73neg Tconv, with or without exogenous ATP: proliferation (CTV dilution); format: cell-based, human; conditions: Treg:Tconv ratio 1/1; round-bottomed wells; anti-CD3/anti-CD28 beads
From the text: To analyze the biological impact of Ado generation by cooperation between CD39^+ Treg and CD73^+ Tconv, we co-cultured Treg labeled with proliferation marker CFSE in presence of CD73^+ or CD73^neg Tconv labeled with Cell Trace Violet (CTV) at a ratio 1/1 in presence or absence of exogenous ATP in round-bottomed wells with compact cell density in presence of anti-CD3/anti-CD28 beads. […] In contrast, CTV-labeled CD73^+ or CD73^neg proliferation that was not altered by the addition of Treg due to the strong activation. […] To mimic physiological conditions, Treg, CD73^+ and CD73^neg Tconv subsets were mixed together at physiological ratio (10%/20%/70%) observed in blood. ATP induced inhibition of the bulk proliferation which can be rescued by the combined addition of CD39 and CD73 inhibitors. The proliferation of each subset was analyzed by specific proliferation markers (CFSE and CTV alone or in combination).

[7] = target: T2, CD39 (Homo sapiens, UniProt P49961); experiment: Degradation of exogenous C13N15 ATP by purified Treg, quantified by HPLC; format: cell-based; conditions: Treg purified from HD blood, two hours
T2 construct: Treg purified from HD blood degraded 48.24±6.20% of ATP into AMP; endogenous in cells
T2 sequence (P49961 1-510): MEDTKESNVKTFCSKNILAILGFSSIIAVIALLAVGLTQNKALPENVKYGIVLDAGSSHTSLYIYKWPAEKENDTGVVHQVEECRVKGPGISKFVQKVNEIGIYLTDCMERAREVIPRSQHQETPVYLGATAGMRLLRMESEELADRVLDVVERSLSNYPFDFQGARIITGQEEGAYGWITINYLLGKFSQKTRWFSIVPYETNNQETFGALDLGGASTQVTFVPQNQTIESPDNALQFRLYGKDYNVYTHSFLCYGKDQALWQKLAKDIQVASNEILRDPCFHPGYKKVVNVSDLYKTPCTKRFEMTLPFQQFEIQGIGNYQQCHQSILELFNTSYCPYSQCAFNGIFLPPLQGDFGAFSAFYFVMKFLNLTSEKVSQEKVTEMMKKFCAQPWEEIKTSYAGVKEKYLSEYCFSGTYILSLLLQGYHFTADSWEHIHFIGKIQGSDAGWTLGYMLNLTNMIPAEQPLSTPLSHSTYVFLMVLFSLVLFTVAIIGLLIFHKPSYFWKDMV
Protocol: FIG. 3: Breast and ovarian tumors contain highly functional CD39+ Treg and CD73+ Tconv with Th1/17 characteristics. (A) Representative expression of CD39 and CD73 analyzed on memory CD4+ Treg and Tconv from Breast (B) and ovarian (OT) by flow cytometry. Frequency of CD39+ cells (B) and Δ CD39 MFI on these cells (C) among paired Treg and Tconv were analyzed by flow cytometry among BT and OT and statistical analysis was performed by Two-way Anova analysis. (D) Purified tumor-associated Treg were assessed for ATP (37.5 μM) degradation by HPLC measurements and compared to HD-blood Treg. In some conditions 30 min pre-incubation with ARL67156 (250 μM) was used to assess the role of CD39 functional activity. (E,F) Δ CD39 MFI of CD39+ cells among Treg (E) or Tconv (F) from paired peripheral blood and BT or OT were analyzed. Statistical analysis was performed by using Two-way Anova analysis. (G) Frequency of CD73+ cells among Tconv from BT and OT was analyzed by flow cytometry. Statistical analysis was performed by using Kruskal-Wallis test.
To confirm this hypothesis, we quantified, by HPLC, the capacity of Treg to degrade ATP into Ado. To prevent interference with endogenous ATP or metabolites, these experiments were performed with exogenous C13N15 stable isotope ATP. After two hours, Treg purified from HD blood degraded 48.24±6.20% of ATP into AMP without generating neither Ado nor Inosine. […]

[8] = target: T3, MDR1 (Homo sapiens, UniProt P08183); experiment: MDR1 functionality: Rhodamine 123 (Rhd123) efflux by flow cytometry; format: cell-based; conditions: HD-PBMC stained with Rhd123 (1 μg/ml); Elacridar 1 μM
T3 construct: After staining of HD-PBMC with Rhd123 we analyzed, by flow cytometry, cells endowed with Rhd123 efflux function; endogenous in cells
T3 sequence (P08183 whole entry): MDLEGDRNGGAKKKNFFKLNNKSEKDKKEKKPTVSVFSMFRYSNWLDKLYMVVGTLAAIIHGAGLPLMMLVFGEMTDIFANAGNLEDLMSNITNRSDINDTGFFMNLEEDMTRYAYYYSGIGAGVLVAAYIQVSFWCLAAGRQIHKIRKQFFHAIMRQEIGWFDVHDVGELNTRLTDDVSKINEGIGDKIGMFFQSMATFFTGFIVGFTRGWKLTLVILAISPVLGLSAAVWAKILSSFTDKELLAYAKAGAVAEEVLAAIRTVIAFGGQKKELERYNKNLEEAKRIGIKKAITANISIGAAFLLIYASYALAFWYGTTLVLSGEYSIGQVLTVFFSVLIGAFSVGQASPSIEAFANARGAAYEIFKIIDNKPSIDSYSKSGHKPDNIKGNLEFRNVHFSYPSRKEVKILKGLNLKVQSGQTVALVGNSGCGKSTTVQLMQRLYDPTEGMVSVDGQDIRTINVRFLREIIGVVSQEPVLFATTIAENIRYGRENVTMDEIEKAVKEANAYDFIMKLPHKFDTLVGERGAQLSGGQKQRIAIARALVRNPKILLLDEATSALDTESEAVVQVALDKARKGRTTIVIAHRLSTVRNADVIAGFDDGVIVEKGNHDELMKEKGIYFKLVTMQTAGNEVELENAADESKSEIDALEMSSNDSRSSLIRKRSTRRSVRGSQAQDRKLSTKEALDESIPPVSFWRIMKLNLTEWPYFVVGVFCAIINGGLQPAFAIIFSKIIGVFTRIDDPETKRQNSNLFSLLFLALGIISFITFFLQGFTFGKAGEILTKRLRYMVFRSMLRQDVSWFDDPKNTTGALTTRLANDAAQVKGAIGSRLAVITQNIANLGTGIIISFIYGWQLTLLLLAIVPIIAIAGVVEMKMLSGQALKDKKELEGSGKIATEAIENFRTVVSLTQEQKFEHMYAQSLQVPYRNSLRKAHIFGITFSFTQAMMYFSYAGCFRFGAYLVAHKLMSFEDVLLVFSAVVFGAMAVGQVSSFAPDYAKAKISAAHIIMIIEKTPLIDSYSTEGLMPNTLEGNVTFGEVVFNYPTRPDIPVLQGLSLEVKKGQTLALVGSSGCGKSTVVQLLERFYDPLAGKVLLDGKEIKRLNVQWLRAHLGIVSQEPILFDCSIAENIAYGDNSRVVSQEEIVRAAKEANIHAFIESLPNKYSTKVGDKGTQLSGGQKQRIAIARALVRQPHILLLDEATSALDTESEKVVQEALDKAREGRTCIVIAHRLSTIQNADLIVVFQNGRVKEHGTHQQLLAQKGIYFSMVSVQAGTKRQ
Protocol: (B, C) MDR1 functionality was assessed on CD73^+ and CD73^neg Tconv by their capacity to exclude Rhd123 (1 μg/ml) analyzed by flow cytometry. […] Frequency of Rhd123^neg cells was analyzed among CD73^+ (black) and CD73^neg (white) Tconv (D). Statistical analysis was performed by using Wilcoxon test.
Moreover, we took advantage of the physiological role of MDR1 in the efflux of specific fluorescent substrate like Rhodamine 123 (Rhd123). After staining of HD-PBMC with Rhd123 we analyzed, by flow cytometry, cells endowed with Rhd123 efflux function.

[9] = system: CD73 and TIGIT expression on CD4+ and CD8+ T cells; experiment: Blood immune-monitoring of metastatic melanoma patients during anti-PD1 treatment (multiparametric flow cytometry); format: in vivo, human
Protocol: 2nd line metastatic melanoma patients treated with anti PD-1 (Nivolumab, 3 mg/kg/i.v, every 2 weeks) were subjected to blood immune-monitoring, by multiparametric flow cytometry analysis, to assess, using specific coupled mAbs against CD73 (APC) and TIGIT (PE), the modulation of expression of both ICP on CD4+ and CD8+ T cells before (inclusion, WO) and during treatment (W2, W12).

CC(=O)O[C@H]1C(=O)[C@@]2(C)[C@H]([C@H](OC(=O)c3ccccc3)[C@]3(O)C[C@H](OC(=O)[C@H](O)[C@@H](NC(=O)c4ccccc4)c4ccccc4)C(C)=C1C3(C)C)[C@]1(OC(C)=O)CO[C@@H]1C[C@@H]2O [Taxol]
viability at 48 h, 1 µM [1]: 80%
sensitivity to Taxol-induced apoptosis ([2]; CD73+MDR1neg subset, high Taxol doses): sensitive to apoptosis
sensitivity to Taxol-induced apoptosis ([2]; CD73negMDR1neg population): highly sensitive

Nc1ncnc2c1ncn2[C@@H]1O[C@H](CO)[C@@H](O)[C@H]1O [Ado, adenosine]
effect on IL-17A secretion by Tconv CD73+ (or CD73neg) [3]: not altered
effect on IL-22 secretion [3]: slightly inhibited
effect on secretion of the cytokines produced by CD73+ or CD73neg Tconv [3]: inhibited
effect on proliferation of both subsets (CD73+ and CD73neg Tconv) ([4]; metronomic addition 75 μM/day, 300 μM final concentration, 4 days): inhibited

Nc1ncnc2c1ncn2[C@@H]1O[C@H](COP(=O)(O)CP(=O)(O)O)[C@@H](O)[C@H]1O [AMPCP]
effect on hydrolysis of C13N15 AMP into Ado by CD73+ Tconv [5]: reversed
effect on AMP-induced inhibition of CD73+ Tconv proliferation ([4]; added with AMP (150 μM final concentration)): reversion of inhibition
effect on inhibition of CD73+ Tconv proliferation induced by Treg and ATP [6]: reversed

Nc1ncnc2c1ncn2[C@@H]1O[C@H](COP(=O)(O)O)[C@@H](O)[C@H]1O [AMP]
effect on proliferation of CD73+ Tconv ([4]; metronomic addition, 150 μM final concentration, 4 days): inhibited

CCN(CC)c1ncnc2c1ncn2[C@@H]1O[C@H](COP(=O)(O)OP(=O)(O)C(Br)(Br)P(=O)(O)O)[C@@H](O)[C@H]1O [ARL67156]
effect on degradation of ATP into AMP by Treg [7]: completely inhibited

COc1cc2c(cc1OC)CN(CCc1ccc(NC(=O)c3cccc4c(=O)c5cccc(OC)c5[nH]c34)cc1)CC2 [Elacridar]
effect on Rhd123 efflux by Tconv [8]: completely abrogated

Nivolumab: anti PD-1 antibody given to metastatic melanoma patients
modulation of CD73 expression on CD4+ or CD8+ T cells ([9]; 11 patients, 3 mg/kg i.v. every 2 weeks, before (W0) and during treatment (W2, W12)): No significant modulation
modulation of TIGIT expression ([9]; between W0 and W2, representative dot plot): increased

B1: rhADA: recombinant Adenosine Deaminase, inducing degradation of Ado into Ino (protein, UniProt P00813 2-363, looked up)
Adenosine deaminase: AQTPAFDKPKVELHVHLDGSIKPETILYYGRRRGIALPANTAEGLLNVIGMDKPLTLPDFLAKFDYYMPAIAGCREAIKRIAYEFVEMKAKEGVVYVEVRYSPHLLANSKVEPIPWNQAEGDLTPDEVVALVGQGLQEGERDFGVKARSILCCMRHQPNWSPKVVELCKKYQQQTVVAIDLAGDETIPGSSLLPGHVQAYQEAVKSGIHRTVHAGEVGSAEVVKEAVDILKTERLGHGYHTLEDQALYNRLRQENMHFEICPWSSYLTGAWKPDTEHAVIRLKNDQANYSLNTDDPLIFKSTLDTDYQMTKRDMGFTEEEFKRLNINAAKSSFLPEDEKRELLDLLYKAYGMPPSASAGQNL
effect on Ado-inhibited proliferation of both T cell subsets ([4]; rhADA 1 μg/ml added with exogenous Ado): restored
